Key:
[1] = molecular target: T1, Adrenergic receptor alpha-2 (Rattus norvegicus, UniProt P22086+P19328+P22909); assay: Displacement of [3H]clonidine from adrenergic alpha2 receptor in Sprague-Dawley rat cortex membrane; assay type: cell membranes
T1 sequence (P22086 whole entry): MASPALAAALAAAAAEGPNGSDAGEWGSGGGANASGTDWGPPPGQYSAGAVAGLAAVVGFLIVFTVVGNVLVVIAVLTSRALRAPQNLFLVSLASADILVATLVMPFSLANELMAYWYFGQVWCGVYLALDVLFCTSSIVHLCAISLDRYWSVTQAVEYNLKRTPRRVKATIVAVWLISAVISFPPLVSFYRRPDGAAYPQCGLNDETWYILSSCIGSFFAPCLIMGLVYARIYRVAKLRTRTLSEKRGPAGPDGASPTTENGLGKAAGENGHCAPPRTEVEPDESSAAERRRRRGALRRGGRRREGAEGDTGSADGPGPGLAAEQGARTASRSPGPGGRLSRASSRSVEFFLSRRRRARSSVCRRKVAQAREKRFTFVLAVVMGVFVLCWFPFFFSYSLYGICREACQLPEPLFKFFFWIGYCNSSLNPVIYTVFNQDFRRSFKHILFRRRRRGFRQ
T1 sequence (P19328 whole entry): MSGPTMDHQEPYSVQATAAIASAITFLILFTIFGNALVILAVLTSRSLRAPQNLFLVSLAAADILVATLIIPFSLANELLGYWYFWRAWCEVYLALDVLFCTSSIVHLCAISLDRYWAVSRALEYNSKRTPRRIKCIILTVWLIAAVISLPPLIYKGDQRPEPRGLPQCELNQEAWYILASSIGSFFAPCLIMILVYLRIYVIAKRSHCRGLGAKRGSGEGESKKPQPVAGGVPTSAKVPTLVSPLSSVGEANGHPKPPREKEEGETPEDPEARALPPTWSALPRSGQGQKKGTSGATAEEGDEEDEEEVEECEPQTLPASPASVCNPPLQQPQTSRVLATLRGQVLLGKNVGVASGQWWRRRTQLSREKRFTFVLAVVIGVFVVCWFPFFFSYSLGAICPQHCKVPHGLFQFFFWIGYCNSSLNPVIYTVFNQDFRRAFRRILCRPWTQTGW
T1 sequence (P22909 whole entry): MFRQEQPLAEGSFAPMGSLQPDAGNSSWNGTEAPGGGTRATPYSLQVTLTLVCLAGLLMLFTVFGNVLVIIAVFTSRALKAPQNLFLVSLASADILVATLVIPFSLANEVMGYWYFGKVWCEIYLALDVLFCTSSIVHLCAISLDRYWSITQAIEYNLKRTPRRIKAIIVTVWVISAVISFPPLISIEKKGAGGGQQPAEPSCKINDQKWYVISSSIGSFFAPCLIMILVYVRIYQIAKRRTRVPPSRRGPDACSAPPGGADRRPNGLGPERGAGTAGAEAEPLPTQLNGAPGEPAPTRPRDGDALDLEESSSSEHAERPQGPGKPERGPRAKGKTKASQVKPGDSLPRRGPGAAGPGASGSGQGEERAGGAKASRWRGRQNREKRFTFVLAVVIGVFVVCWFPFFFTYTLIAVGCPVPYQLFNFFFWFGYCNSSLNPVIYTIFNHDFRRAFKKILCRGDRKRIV

[2] = Selectivity for human PNMT over Sprague-Dawley rat adrenergic alpha-2 receptor

SMILES	Ki [1] [µM]	Ratio Ki [2]
O=[N+]([O-])c1cccc2c3c(ccc12)CCNC3	0.41	
c1ccc2c3c(ccc2c1)CCNC3	0.016	
Brc1cccc2c3c(ccc12)CCNC3	0.1	
Oc1cccc2c3c(ccc12)CCNC3	0.011	
NS(=O)(=O)c1cccc2c3c(ccc12)CCNC3	2.9	
N#Cc1cccc2c3c(ccc12)CCNC3	0.59	
c1ccc2c(c1)CCNC2		0.06
COc1cccc2c3c(ccc12)CCNC3	0.16	
